Like-named read-outs stand apart in the source and are kept apart here.
Columns and labels:
[1] = pH 7.4
[2] = tested on: HT-29 cells; assay: Inhibitory effect on cell growth (MTT assay), HT-29 cells; format: cell-based
Experimental: Using HT-29 cells, the effect of the polyal-SN38 conjugates on cell growth was evaluated.
(§1) Cells are grown in McCoy's 5a medium with 1.5 mM L-glutamine supplemented with 10% FBS.

[3] = tested on: HCT116; assay: Inhibitory effect on cell growth, HCT116 cells; format: cell-based, human
Experimental: as §1

[4] = Homo sapiens, HT-29, HT29, growth inhibition 72 hours post treatment, MTT

PHF-GA-Ala-SN38 [Conjugate S4]
Release half-lives of SN38 conjugates, T½ [1]: 54.2 h

CCc1c2c(nc3ccc(O)cc13)-c1cc3c(c(=O)n1C2)COC(=O)[C@]3(O)CC [SN38]
IC50 ([2]; read-out: HT29 IC50): 0.025 µM | IC50 [3]: 0.009 µM

CCc1c2c(nc3ccc(OC(=O)N4CCC(N5CCCCC5)CC4)cc13)-c1cc3c(c(=O)n1C2)COC(=O)[C@]3(O)CC [Irinotecan]
IC50 [2, 4]: 4.43 µM | IC50 ([3]; Homo sapiens, HCT-116): 4.65 µM

CC[C@@]1(O)C(=O)OCc2c1cc1n(c2=O)Cc2cc3ccccc3nc2-1 [Camptothecin (CPT), Camptothecin]
IC50 [2, 4]: 0.083 µM | IC50 ([3]; Homo sapiens, HCT-116): 0.023 µM

PHF-SA-Gly-SN38 [Conjugate S1]
Release half-lives of SN38 conjugates, T½ [1]: 2.0 h

PHF-SA-Ala-SN38 [Conjugate S3]
Release half-lives of SN38 conjugates, T½ [1]: 36.9 h

PHF-GA-Gly-SN38 [Conjugate S2]
Release half-lives of SN38 conjugates, T½ [1]: 18.5 h

Reference: patent publication US8524214B2, “Polyal drug conjugates comprising variable rate-releasing linkers” (Mersana Therapeutics, Inc., priority 2009, dated 2013)
